The record followed here is ChEMBL document CHEMBL4002566, “S-substituted 3,5-dinitrophenyl 1,3,4-oxadiazole-2-thiols and tetrazole-5-thiols as highly efficient antitubercular agents” (Eur J Med Chem, 2017).

Molecules are shown by their SMILES. In brackets after ≈: the same amount, converted by molar mass.

Holding throughout (assay type): functional
Test [1] relates to Mycobacterium avium. The experiment in a line: Antimycobacterial activity against Mycobacterium avium CNCTC My 330/88 after 21 days by micromethod. To be noted: CNCTC My 330/88, 504 h.
The subject of test [2] is Mycobacterium tuberculosis. Nature of the test: Antimycobacterial activity against Mycobacterium tuberculosis CNCTC My 331/88 after 14 days by micromethod. To be noted: CNCTC My 331/88, 336 h.
Test [3] concerns Mycobacterium avium. The experiment in a line: Antimycobacterial activity against Mycobacterium avium CNCTC My 330/88 after 14 days by micromethod. The settings on record: CNCTC My 330/88, 336 h.
For test [4], the system named is Mycobacterium kansasii. The experiment in a line: Antimycobacterial activity against Mycobacterium kansasii CNCTC My 235/80 after 14 days by micromethod. The settings on record: CNCTC My 235/80, 336 h.
Test [5] deals with Mycobacterium kansasii. Nature of the test: Antimycobacterial activity against Mycobacterium kansasii 6509/96 clinical isolate after 14 days by micromethod. The settings on record: 6509/96, 336 h.
In test [6] the test system is Mycobacterium tuberculosis. Nature of the test: Antimycobacterial activity against Mycobacterium tuberculosis CNCTC My 331/88 after 21 days by micromethod. To be noted: CNCTC My 331/88, 504 h.
For test [7], the system named is Mycobacterium kansasii. The experiment in a line: Antimycobacterial activity against Mycobacterium kansasii CNCTC My 235/80 after 21 days by micromethod. To be noted: CNCTC My 235/80, 504 h.
In test [8] the test system is Mycobacterium kansasii. Nature of the test: Antimycobacterial activity against Mycobacterium kansasii CNCTC My 235/80 after 7 days by micromethod. The settings on record: CNCTC My 235/80, 168 h.
Test [9] has as its system Mycobacterium kansasii. The experiment in a line: Antimycobacterial activity against Mycobacterium kansasii 6509/96 clinical isolate after 21 days by micromethod. The settings on record: 6509/96, 504 h.
In test [10] the test system is Mycobacterium kansasii. Nature of the test: Antimycobacterial activity against Mycobacterium kansasii 6509/96 clinical isolate after 7 days by micromethod. The settings on record: 6509/96, 168 h.

On to `O=[N+]([O-])c1cc(-c2nnc(SCc3ccccc3)o2)cc(C(F)(F)F)c1`, for which the MIC is greater than 250 µM against Mycobacterium avium [1]; 1 µM (≈ 0.381 µg/mL) in test [2]; greater than 250 µM with Mycobacterium avium [3]; 4 µM (≈ 1.53 µg/mL) with Mycobacterium kansasii [4]; 4 µM (≈ 1.53 µg/mL) against Mycobacterium kansasii [5]; 1 µM (≈ 0.381 µg/mL) in [6]. Moreover, the MIC in the test on Mycobacterium kansasii [7] stood at 4 µM (≈ 1.53 µg/mL); with Mycobacterium kansasii [8] it was 2 µM (≈ 0.763 µg/mL); with Mycobacterium kansasii [9] it was 4 µM (≈ 1.53 µg/mL); in the test with Mycobacterium kansasii [10] it was 2 µM (≈ 0.763 µg/mL).
With `COc1ccc(CSc2nnc(-c3cc(NC(C)=O)cc([N+](=O)[O-])c3)o2)cc1`, the MIC is greater than 500 µM in the test with Mycobacterium avium [1]; greater than 1000 µM in test [2]; greater than 500 µM against Mycobacterium avium [3]; greater than 1000 µM with Mycobacterium kansasii [4]; greater than 1000 µM in the test with Mycobacterium kansasii [5]; greater than 1000 µM in test [6]. For the same molecule, the minimal inhibitory concentration (MIC) in the test with Mycobacterium kansasii [7], with Mycobacterium kansasii [8], with Mycobacterium kansasii [9] and with Mycobacterium kansasii [10] was greater than 1000 µM throughout.
`CSc1nnc(-c2cc([N+](=O)[O-])cc([N+](=O)[O-])c2)o1`: the MIC with Mycobacterium avium [1] worked out at 16 µM (≈ 4.52 µg/mL); in [2], 4 µM (≈ 1.13 µg/mL); against Mycobacterium avium [3], 16 µM (≈ 4.52 µg/mL); against Mycobacterium kansasii [4], 16 µM (≈ 4.52 µg/mL); against Mycobacterium kansasii [5], 8 µM (≈ 2.26 µg/mL); in [6] it was 8 µM (≈ 2.26 µg/mL). The MIC with Mycobacterium kansasii [7] stood at 32 µM (≈ 9.03 µg/mL); against Mycobacterium kansasii [8] it was 8 µM (≈ 2.26 µg/mL); against Mycobacterium kansasii [9], 16 µM (≈ 4.52 µg/mL); with Mycobacterium kansasii [10], 8 µM (≈ 2.26 µg/mL).
Turning to `O=[N+]([O-])c1cc(-c2nnc(SCc3ccc(Cl)cc3)o2)cc(C(F)(F)F)c1`, the MIC against Mycobacterium avium [1] is greater than 250 µM; in test [2], 0.5 µM (≈ 0.208 µg/mL); with Mycobacterium avium [3], greater than 250 µM; with Mycobacterium kansasii [4], 1 µM (≈ 0.416 µg/mL); against Mycobacterium kansasii [5], 1 µM (≈ 0.416 µg/mL); in test [6] it was 0.5 µM (≈ 0.208 µg/mL). Further, the MIC with Mycobacterium kansasii [7], in the test on Mycobacterium kansasii [8], against Mycobacterium kansasii [9] and in the test with Mycobacterium kansasii [10] was 1 µM (≈ 0.416 µg/mL) throughout.
With `CC(=O)Nc1cc(-c2nnc(SCc3ccc([N+](=O)[O-])cc3)o2)cc([N+](=O)[O-])c1`, the MIC (with Mycobacterium avium [1]; in test [2]; in the test with Mycobacterium avium [3]; against Mycobacterium kansasii [4]; with Mycobacterium kansasii [5]; in [6]) was greater than 500 µM in each case. Also, the MIC against Mycobacterium kansasii [7], against Mycobacterium kansasii [8], against Mycobacterium kansasii [9] and against Mycobacterium kansasii [10] was greater than 500 µM in each case.
As for `CCCSc1nnc(-c2cc([N+](=O)[O-])cc([N+](=O)[O-])c2)o1`, the MIC came to 8 µM (≈ 2.48 µg/mL) against Mycobacterium avium [1]; 0.25 µM (≈ 0.0776 µg/mL) in test [2]; 8 µM (≈ 2.48 µg/mL) with Mycobacterium avium [3]; 2 µM (≈ 0.621 µg/mL) in the test on Mycobacterium kansasii [4]; 2 µM (≈ 0.621 µg/mL) in the test on Mycobacterium kansasii [5]; 0.5 µM (≈ 0.155 µg/mL) in test [6]. In addition, the MIC against Mycobacterium kansasii [7] was 2 µM (≈ 0.621 µg/mL); with Mycobacterium kansasii [8] it was 1 µM (≈ 0.31 µg/mL); in the test on Mycobacterium kansasii [9], 4 µM (≈ 1.24 µg/mL); in the test with Mycobacterium kansasii [10] it was 1 µM (≈ 0.31 µg/mL).
As for `NNC(=O)c1ccncc1` [ISONIAZID], the MIC in the test with Mycobacterium avium [1] was greater than 250 µM; in test [2] it was 0.5 µM (≈ 0.0686 µg/mL); in the test on Mycobacterium avium [3], greater than 250 µM; with Mycobacterium kansasii [4] it was greater than 250 µM; against Mycobacterium kansasii [5], 4 µM (≈ 0.549 µg/mL); in test [6] it was 1 µM (≈ 0.137 µg/mL). The MIC was greater than 250 µM in the test on Mycobacterium kansasii [8], 8 µM (≈ 1.1 µg/mL) in the test on Mycobacterium kansasii [9] and 4 µM (≈ 0.549 µg/mL) against Mycobacterium kansasii [10].
For the molecule `Nc1cc(-c2nnc(SCc3ccc([N+](=O)[O-])cc3)o2)cc([N+](=O)[O-])c1`, the MIC (against Mycobacterium avium [1]; in test [2]; against Mycobacterium avium [3]; in the test on Mycobacterium kansasii [4]; in the test on Mycobacterium kansasii [5]; in test [6]) was 125 µM (≈ 46.7 µg/mL) in each case. The MIC against Mycobacterium kansasii [7], with Mycobacterium kansasii [8], against Mycobacterium kansasii [9] and in the test on Mycobacterium kansasii [10] was 125 µM (≈ 46.7 µg/mL) throughout.
For `Nc1cc(-c2nnc(SCc3ccc(Cl)cc3)o2)cc([N+](=O)[O-])c1`, the MIC (with Mycobacterium avium [1]; in test [2]; against Mycobacterium avium [3]; against Mycobacterium kansasii [4]; in the test on Mycobacterium kansasii [5]; in [6]) was 250 µM (≈ 90.7 µg/mL) in each case. For the same molecule, the MIC against Mycobacterium kansasii [7], in the test on Mycobacterium kansasii [8], against Mycobacterium kansasii [9] and against Mycobacterium kansasii [10] was 250 µM (≈ 90.7 µg/mL) throughout.
Regarding `CC(=O)Nc1cc(-c2nnc(SCc3ccc(Cl)cc3)o2)cc([N+](=O)[O-])c1`, the MIC against Mycobacterium avium [1] is greater than 1000 µM; in [2], 250 µM (≈ 101 µg/mL); in the test on Mycobacterium avium [3], greater than 1000 µM; with Mycobacterium kansasii [4] it was greater than 1000 µM; in the test with Mycobacterium kansasii [5] it was greater than 1000 µM; in test [6], 250 µM (≈ 101 µg/mL). The MIC with Mycobacterium kansasii [7], against Mycobacterium kansasii [8], in the test on Mycobacterium kansasii [9] and against Mycobacterium kansasii [10] was greater than 1000 µM in each case.
On to `O=[N+]([O-])c1cc(-c2nnc(SCc3ccc(Cl)cc3Cl)o2)cc([N+](=O)[O-])c1`, for which the MIC against Mycobacterium avium [1] stood at 250 µM (≈ 107 µg/mL); in test [2] it was 0.03 µM (≈ 0.0128 µg/mL); with Mycobacterium avium [3], 250 µM (≈ 107 µg/mL); against Mycobacterium kansasii [4], 0.06 µM (≈ 0.0256 µg/mL); in the test with Mycobacterium kansasii [5], 0.03 µM (≈ 0.0128 µg/mL); in test [6] it was 0.03 µM (≈ 0.0128 µg/mL). The MIC turned out to be 0.06 µM (≈ 0.0256 µg/mL) in the test on Mycobacterium kansasii [7], 0.03 µM (≈ 0.0128 µg/mL) against Mycobacterium kansasii [8], 0.03 µM (≈ 0.0128 µg/mL) with Mycobacterium kansasii [9] and 0.03 µM (≈ 0.0128 µg/mL) against Mycobacterium kansasii [10].
With `CCCCCSc1nnc(-c2cc([N+](=O)[O-])cc([N+](=O)[O-])c2)o1`, the MIC turned out to be 32 µM (≈ 10.8 µg/mL) in the test on Mycobacterium avium [1]; 0.03 µM (≈ 0.0102 µg/mL) in test [2]; 16 µM (≈ 5.41 µg/mL) against Mycobacterium avium [3]; 0.03 µM (≈ 0.0102 µg/mL) in the test with Mycobacterium kansasii [4]; 0.03 µM (≈ 0.0102 µg/mL) in the test on Mycobacterium kansasii [5]; 0.03 µM (≈ 0.0102 µg/mL) in test [6]. Moreover, the MIC against Mycobacterium kansasii [7], with Mycobacterium kansasii [8], in the test on Mycobacterium kansasii [9] and in the test on Mycobacterium kansasii [10] was 0.03 µM (≈ 0.0102 µg/mL) each time.
On to `O=[N+]([O-])c1cc(-c2nnc(SC3CCCCC3)o2)cc([N+](=O)[O-])c1`, for which the MIC was 32 µM (≈ 11.2 µg/mL) in the test on Mycobacterium avium [1]; 0.03 µM (≈ 0.0105 µg/mL) in test [2]; 16 µM (≈ 5.61 µg/mL) in the test with Mycobacterium avium [3]; 0.03 µM (≈ 0.0105 µg/mL) against Mycobacterium kansasii [4]; 0.03 µM (≈ 0.0105 µg/mL) in the test on Mycobacterium kansasii [5]; 0.03 µM (≈ 0.0105 µg/mL) in [6]. Also, the MIC against Mycobacterium kansasii [7], in the test with Mycobacterium kansasii [8], against Mycobacterium kansasii [9] and against Mycobacterium kansasii [10] was 0.03 µM (≈ 0.0105 µg/mL) in each case.
Turning to `CC(=O)Oc1cc(-c2nnc(SCc3ccc(Cl)c(Cl)c3)o2)cc([N+](=O)[O-])c1`, the MIC (in the test on Mycobacterium avium [1]; in test [2]; in the test on Mycobacterium avium [3]; in the test with Mycobacterium kansasii [4]; in the test with Mycobacterium kansasii [5]; in test [6]) was 1000 µM (≈ 440 µg/mL) in each case. Further, the MIC in the test on Mycobacterium kansasii [7], in the test with Mycobacterium kansasii [8], in the test with Mycobacterium kansasii [9] and in the test on Mycobacterium kansasii [10] was 1000 µM (≈ 440 µg/mL) each time.
On to `CC(=O)Nc1cc(-c2nnc(SCc3ccc(Br)cc3)o2)cc([N+](=O)[O-])c1`, for which the MIC (against Mycobacterium avium [1]; in test [2]; in the test with Mycobacterium avium [3]; with Mycobacterium kansasii [4]; with Mycobacterium kansasii [5]; in test [6]) was greater than 500 µM throughout. Moreover, the MIC against Mycobacterium kansasii [7], with Mycobacterium kansasii [8], against Mycobacterium kansasii [9] and in the test with Mycobacterium kansasii [10] was greater than 500 µM each time.
Consider `O=[N+]([O-])c1cc(-c2nnc(S)o2)cc([N+](=O)[O-])c1`, for which the MIC with Mycobacterium avium [1] is 125 µM (≈ 33.5 µg/mL); in test [2] it was 62 µM (≈ 16.6 µg/mL); in the test on Mycobacterium avium [3], 62 µM (≈ 16.6 µg/mL); against Mycobacterium kansasii [4], 125 µM (≈ 33.5 µg/mL); in the test with Mycobacterium kansasii [5], 125 µM (≈ 33.5 µg/mL); in test [6], 62 µM (≈ 16.6 µg/mL). In addition, the MIC in the test with Mycobacterium kansasii [7], against Mycobacterium kansasii [8], against Mycobacterium kansasii [9] and with Mycobacterium kansasii [10] was 125 µM (≈ 33.5 µg/mL) throughout.
